# Tests used:
# [1] = target: T1, Human FPPS (farnesyl diphosphate synthase) (Homo sapiens, UniProt P14324); assay: FPPS inhibition; assay type: biochemical
# T1 sequence (P14324 1-419): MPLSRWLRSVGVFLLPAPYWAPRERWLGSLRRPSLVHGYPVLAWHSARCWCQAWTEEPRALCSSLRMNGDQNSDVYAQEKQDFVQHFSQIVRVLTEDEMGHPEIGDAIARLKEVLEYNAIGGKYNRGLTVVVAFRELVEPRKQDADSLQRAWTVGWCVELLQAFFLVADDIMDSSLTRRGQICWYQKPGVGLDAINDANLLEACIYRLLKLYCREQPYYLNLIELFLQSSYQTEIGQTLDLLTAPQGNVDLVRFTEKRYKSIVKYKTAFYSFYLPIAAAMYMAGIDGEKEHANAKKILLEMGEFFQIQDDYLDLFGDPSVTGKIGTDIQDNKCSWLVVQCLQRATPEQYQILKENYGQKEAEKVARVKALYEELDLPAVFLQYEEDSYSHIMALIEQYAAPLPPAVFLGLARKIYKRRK
# HIV-1 RT = settings: cited from earlier work
# MCF-7, SF-268, NCI-H460 = assay: Human cell growth inhibition, three cell lines together; assay type: cell-based; settings: read-out: IC50 averaged over the three cell lines investigated
SMILES,"IC50 (MCF-7, SF-268, NCI-H460) [µM]",other results
O=P(O)(O)C(O)(Cc1ccc(Cl)c(Cl)c1)P(=O)(O)O [Compound 5],–,IC50 [1]: 8.5 µM
O=P(O)(O)C(Nc1cccc(-c2ccccc2)c1)P(=O)(O)O [Compound 3],~229,activity in inhibiting NRTI excision (in words) (HIV-1 RT; previous work ref 11): some activity
"NCCC(O)(P(=O)(O)O)P(=O)(O)O [Compound 4, pamidronate]",–,inhibition of the phosphorolytic activity of RT (in words) (HIV-1 RT): competitively inhibited
"O=P(O)(O)C(O)(Cc1cnc2ccccn12)P(=O)(O)O [Compound 44, minodronate]",~5,–
"O=P(O)(O)C(O)(Cn1ccnc1)P(=O)(O)O [Compound 36, zoledronate]",~15,–

# Reference: publication PMC2586422 (Bioorganic & medicinal chemistry, 2008)
